Test results from paper PMC11340408 (RSC Advances, 2024).

Legend:
Assay type in all cases: cell-based, human
MCF-7 cell line = experiment: MTT assay, breast cancer MCF-7 cell line; conditions: for IC50: Homo sapiens, MCF7, 48 h, read-out: IC50 against MCF-7; for Activity against MCF-7 compared to MTX (in words): MTT assay; for times greater efficacy than MTX against MCF-7: ratio to MTX IC50
HEK-293 cell line = experiment: MTT assay, toxicity on normal cell line HEK-293; conditions: for IC50: Homo sapiens, HEK293, 48 h, read-out: IC50 against HEK-293; for Viability of HEK-293 (in words): 15.62–500 μM
A-375 cell line = experiment: MTT assay, melanoma A-375 cell line; conditions: for IC50: Homo sapiens, A-375, 48 h, read-out: IC50 against A375; for Viability of A375 (in words): 15.62–500 μM, Fig. 6A

Structure (SMILES) | IC50 (MCF-7 cell line) [µM] | Activity against MCF-7 compared to MTX (in words) (MCF-7 cell line) | IC50 (HEK-293 cell line) [µM] | IC50 (A-375 cell line) [µM] | times greater efficacy than MTX against MCF-7 (MCF-7 cell line) [times] | Viability of HEK-293 (in words) (HEK-293 cell line; Fig. 6C) | Toxicity to HEK-293 compared to MTX (in words) (HEK-293 cell line; MTT assay) | Viability of A375 (in words) (A-375 cell line) | Viability of MCF-7 (in words) (MCF-7 cell line; 15.62–500 μM, Fig. 6B) | Toxicity to HEK-293 cells (in words) (HEK-293 cell line; MTT assay, normal cell line) | Toxicity against HEK-293 at 500 μM (in words) (HEK-293 cell line; 500 μM, Fig. 6C)
Cc1ccc(/C=C/C(=O)c2ccc(Oc3nc4c(c(=O)n(C)c(=O)n4C)n3C)cc2)cc1 [Compound 4a, (E)-1,3,7-Trimethyl-8-(4-(3-p-tolylacryloyl)phenoxy)-1H-purine-2,6(3H,7H)-dione] | 38 ± 3.7 | activities surpassing that of MTX | 407 ± 3.1 | 279 ± 2.3 |  |  |  |  |  |  | 
Cn1c(=O)c2c(nc(Oc3ccc(C(=O)/C=C/c4ccc(Cl)cc4Cl)cc3)n2C)n(C)c1=O [Compound 4b, (E)-8-(4-(3-(2,4-Dichlorophenyl)acryloyl)phenoxy)-1,3,7-trimethyl-1H-purine-2,6(3H,7H)-dione] | 230 ± 3.2 |  | 347 ± 4.2 | 325 ± 3.1 |  |  |  |  |  |  | 
COc1ccccc1/C=C/C(=O)c1ccc(Oc2nc3c(c(=O)n(C)c(=O)n3C)n2C)cc1 [Compound 4c, (E)-8-(4-(3-(2-Methoxyphenyl)acryloyl)phenoxy)-1,3,7-trimethyl-1H-purine-2,6(3H,7H)-dione] | 269 ± 4.5 |  | 451 ± 2.4 | 325 ± 3.8 |  |  |  |  |  |  | 
Cn1c(=O)c2c(nc(Oc3ccc(C(=O)/C=C/c4ccccc4)cc3)n2C)n(C)c1=O [Compound 4d, (E)-8-(4-Cinnamoylphenoxy)-1,3,7-trimethyl-1H-purine-2,6(3H,7H) dione] | 18 ± 1.9 | activities surpassing that of MTX | 220 ± 3.4 | 157 ± 4.2 | ~19 |  |  |  |  |  | 
Cn1c(=O)c2c(nc(Oc3ccc(C(=O)/C=C/c4ccc(Cl)cc4)cc3)n2C)n(C)c1=O [Compound 4e, (E)-8-(4-(3-(4-Chlorophenyl)acryloyl)phenoxy)-1,3,7-trimethyl-1H-purine-2,6(3H,7H)-dione] | 35 ± 2.2 | activities surpassing that of MTX | 386 ± 3.2 | 273 ± 3.4 | ~10 |  |  |  |  |  | 
Cn1c(=O)c2c(nc(Oc3ccc(C(=O)/C=C/c4cccc([N+](=O)[O-])c4)cc3)n2C)n(C)c1=O [Compound 4f, (E)-1,3,7-Trimethyl-8-(4-(3-(3-nitrophenyl)acryloyl)phenoxy)-1H-purine-2,6(3H,7H)-dione] | > 500 |  | > 500 | > 500 |  |  |  |  |  |  | 
COc1ccc(/C=C/C(=O)c2ccc(Oc3nc4c(c(=O)n(C)c(=O)n4C)n3C)cc2)c(OC)c1 [Compound 4g, (E)-8-(4-(3-(2,4-Dimethoxyphenyl)acryloyl)phenoxy)-1,3,7-trimethyl-1H-purine-2,6(3H,7H)-dione] | > 500 |  | > 500 | 425 ± 3.5 |  |  |  |  |  |  | 
COc1ccc(/C=C/C(=O)c2ccc(Oc3nc4c(c(=O)n(C)c(=O)n4C)n3C)cc2)cc1 [Compound 4h, (E)-8-(4-(3-(4-Methoxyphenyl)acryloyl)phenoxy)-1,3,7-trimethyl-1H-purine-2,6(3H,7H)-dione] | > 500 |  | > 500 | > 500 |  |  |  |  |  |  | 
Cn1c(=O)c2c(nc(Oc3ccc(C(=O)/C=C/c4ccccc4Cl)cc3)n2C)n(C)c1=O [Compound 4i, (E)-8-(4-(3-(2-Chlorophenyl)acryloyl)phenoxy)-1,3,7-trimethyl-1H-purine-2,6(3H,7H)-dione] | 108 ± 3.1 |  | 162 ± 4.2 | 111 ± 1.9 |  | more toxic | more toxic | lowest viability values |  |  | 
Cn1c(=O)c2c(nc(Oc3ccc(C(=O)/C=C/c4c(Cl)cccc4Cl)cc3)n2C)n(C)c1=O [Compound 4j, (E)-8-(4-(3-(2,6-Dichlorophenyl)acryloyl)phenoxy)-1,3,7-trimethyl-1H-purine-2,6(3H,7H)-dione] | 181 ± 3.1 |  | 214 ± 4.3 | 200 ± 4.3 |  |  |  |  |  |  | 
COC(=O)c1ccc(/C=C/C(=O)c2ccc(Oc3nc4c(c(=O)n(C)c(=O)n4C)n3C)cc2)cc1 [Compound 4k, (E)-Methyl 4-(3-oxo-3-(4-(1,3,7-trimethyl-2,6-dioxo-2,3,6,7-tetrahydro-1H-purin-8-yloxy)phenyl)prop-1-enyl)benzoate] | 34 ± 3.5 | activities surpassing that of MTX | 99 ± 3 | 92 ± 3.2 | ~10 | highest toxicity and lowest viability | more toxic | lowest viability values | lowest viability rate | most toxic | 
COc1ccc(C(=O)/C=C/c2ccc(Oc3nc4c(c(=O)n(C)c(=O)n4C)n3C)cc2)cc1 [Compound 5a, (E)-8-(4-(3-(4-Methoxyphenyl)-3-oxoprop-1-enyl)phenoxy)-1,3,7-trimethyl-1H-purine-2,6(3H,7H)-dione] | 249 ± 3.2 |  | > 500 | 249 ± 3.6 |  |  |  |  |  |  | 
Cn1c(=O)c2c(nc(Oc3ccc(/C=C/C(=O)c4ccc([N+](=O)[O-])cc4)cc3)n2C)n(C)c1=O [Compound 5b, (E)-1,3,7-Trimethyl-8-(4-(3-(4-nitrophenyl)-3-oxoprop-1-enyl)phenoxy)-1H-purine-2,6(3H,7H)-dione] | 223 ± 3.7 |  | 419 ± 4.6 | 275 ± 3.7 |  |  |  |  |  |  | 
Cn1c(=O)c2c(nc(Oc3ccc(/C=C/C(=O)c4cccc([N+](=O)[O-])c4)cc3)n2C)n(C)c1=O [Compound 5c, (E)-1,3,7-Trimethyl-8-(4-(3-(3-nitrophenyl)-3-oxoprop-1-enyl)phenoxy)-1H-purine-2,6(3H,7H)-dione] | > 500 |  | > 500 | > 500 |  |  |  |  |  |  | 
Cc1ccc(C(=O)/C=C/c2ccc(Oc3nc4c(c(=O)n(C)c(=O)n4C)n3C)cc2)cc1 [Compound 5d, (E)-1,3,7-Trimethyl-8-(4-(3-oxo-3-p-tolylprop-1-enyl)phenoxy)-1H-purine-2,6(3H,7H)-dione] | > 500 |  | > 500 | > 500 |  |  |  |  |  |  | 
Cn1c(=O)c2c(nc(Oc3ccc(/C=C/C(=O)c4ccc5ccccc5c4)cc3)n2C)n(C)c1=O [Compound 5e, (E)-1,3,7-Trimethyl-8-(4-(3-(naphthalen-2-yl)-3-oxoprop-1-enyl)phenoxy)-1H-purine-2,6(3H,7H)-dione] | 333 ± 2.5 |  | > 500 | > 500 |  |  |  |  |  |  | 
Cn1c(=O)c2c(nc(Oc3ccc(/C=C/C(=O)c4ccc(Cl)cc4)cc3)n2C)n(C)c1=O [Compound 5f, (E)-8-(4-(3-(4-Chlorophenyl)-3-oxoprop-1-enyl)phenoxy)-1,3,7-trimethyl-1H-purine-2,6(3H,7H)-dione] | 130 ± 3.4 |  | 240 ± 3.7 | 368 ± 3.1 |  | more toxic |  |  |  |  | 
CN(Cc1cnc2nc(N)nc(N)c2n1)c1ccc(C(=O)N[C@@H](CCC(=O)O)C(=O)O)cc1 [MTX, methotrexate, reference compound] | 343 ± 3.6 |  | 199 ± 2.4 | 418 ± 2 |  |  |  |  |  |  | highest toxicity
